Entries after “also recorded” stand apart in the source; their conditions may differ.
Key:
BC CML CD34+ cells (LSC) = experiment: SL/M2 stromal co-culture, clonogenic survival and self-renewal (replating) assays, BC CML; format: cell-based, human; conditions: imetelstat monotherapy, 1 to 10 μM, vs mismatch control
Excerpt: Lentiviral human wild-type and mutant ADAR1^E912A (pCDH-EF1-T2A-copGFP) and shRNA targeting ADAR1 were produced according to published protocols^27,37. In Vitro MPN-SPC and LSC Survival and Self-Renewal Assays with Imetelstat To assess MPN progenitor and LSC survival and self-renewal in vitro, human primary CD34^+ cells selected from BC CML (n=5), MF (n=9) or age matched normal bone marrow (a-NBM, n=4) were co-cultured with SL/M2 stromal cells for 7-14 days, and then treated with imetelstat alone or combined with dasatinib for BC CML or Pacritinib for MF. Colony forming and replating assays were performed as previously described^32.
To assess MPN progenitor and LSC survival and self-renewal in vitro, human primary CD34^+ cells selected from BC CML (n=5), MF (n=9) or age matched normal bone marrow (a-NBM, n=4) were co-cultured with SL/M2 stromal cells for 7-14 days, and then treated with Imetelstat alone or combined with dasatinib for BC CML or Pacritinib for MF. Colony forming and replating assays were performed as previously described^32,33.
FIG. 3A. A schematic illustration of SL/M2 stromal co-cultures established to quantify in vitro MPN-SPC and LSC survival and self-renewal. Human primary CD34^+ cells selected from BC CML (n=5), MF (n=9) or age matched normal bone marrow (a-NBM, n=4) were co-cultured with SL/M2 stromal cells for 7-14 days. […]

[1] = tested on: MF CD34+ cells engrafted in NSG-SGM3 mice; experiment: Humanized MF MPN-SPC (pre-LSC) mouse model; format: in vivo
Excerpt: Human CD34^+ cells isolated from MF and BC CML samples (Table S2, illustrated as FIG. 11) were transplanted intravenously into adult NSG-SGM3 (expressing human IL-3, GM-CSF and SCF) mice following 300 cGy of irradiation or intrahepatically into neonatal RAG2^−/− yc^−/− mice, respectively^27,32.
Human CD34^+ cells isolated from MF and BC CML (Table S2) samples were transplanted intravenously into adult NSG-SGM3 (expressing human IL-3, GM-CSF and SCF) mice following
300 cGy of irradiation or intrahepatically into newborn RAG2^−/−[…]c^−/− mice^28,32,34. Post-transplantation (13 to 16 weeks), bone marrow and spleen were collected and analyzed by FACS^32. Mice were treated with vehicle, mismatch or imetelstat at varying doses. Also, MF CD34^+ cells were transduced with pCDH lentivirus control or ADAR1-OE lentivirus with a MOI of 100 for 48 hours, followed by intravenous transplantation into NSG-SGM3 mice to assess the impact of ADAR1 overexpression on MF engraftment.
FIG. 4A. A schema of humanized BC CML LSC and MF SPC mouse models. Human CD34^+ cells sorted from either BC CML or myelofibrosis patient blood or marrow were transplanted into neonatal Rag2^−/−[…]c^−/− mice or intravenously transplanted into adult NSG-S mice. Engrafted BC CML or MF mouse models were randomized into (1) vehicle control, (2) mismatch control, and (3) imetelstat treatment groups (n≥3/group). Bone marrow (BM) and spleen were collected when completing the dosing plan, and the single-cell suspension was analyzed by FACS.
FIG. 4B. Bone marrow from each treatment group was collected for histological examination and FACS analysis. Left: Photomicrogaphs depict reticulin staining, DAPI staining, human CD45^+ expression and merged DAPI and CD45 images in bone marrow collected from no transplant, vehicle, and mismatch controls as well as from imetelstat treated myelofibrosis (MF) mouse models. Right: FACS analysis plots depicting forward scatter (FSC, y-axis) and human CD45 engraftment (x-axis) in no transplant, vehicle, and mismatch controls as well as imetelstat treated MF mouse models.

telomere length = experiment: FlowFish telomere length assay in LSC mouse models; format: in vivo, human; conditions: imetelstat compared with mismatch control; p<0.05, t test, ANOVA
Description: Telomere length was determined using the Telomere PNA Kit/FITC for Flow Cytometry (Dako, Cat #K5327) with a MACSQuant10 and analyzed with FlowJo software. The Relative Telomere Length (RTL) was calculated by dividing the mean fluorescence intensity (MFI) of the test sample G0/G1 population by the MFI of the normal peripheral blood reference G0/G1 population using the Cycletest™ Plus DNA Kit (BD, Cat #340242). Telomerase activity was determined using the TRAPeze Kit RT Telomerase Detection Kit (Millipore, Catalog No. S7710).
Samples were selected from engrafted mouse bone marrow or spleen with human CD45+ immunomagnetic beads (Miltenyi). Telomere length was determined by using the Telomere PNA Kit/FITC for Flow Cytometry (Dako, Cat #K5327). Samples were run on the MACSQuant10 and analyzed with FlowJo software. The Relative Telomere Length (RTL) was calculated. The 1301 cell line was utilized as control cells. The DNA index was determined with the (BD Cycletest™ Plus DNA Kit, Cat #340242). The DNA index was obtained by dividing the MFI of the test sample G0/G1 population by the WI of the normal reference G0/G1 population. Human peripheral blood mononuclear cells were used as “the normal reference G0/G1 population” for calculating the DNA index. Telomerase activity was determined by using TRAPeze Kit RT Telomerase Detection Kit (Millipore, Catalog No. S7710). […]

[2] = tested on: normal cord blood CD34+ cells; experiment: Normal HSC (cord blood CD34+) engrafted mouse model; format: in vivo, mice
Description: FIG. 9A-B graphically illustrate data showing that normal HSC mouse xenograft models were established with normal cord blood CD34^+ cells by intrahepatic injection into neonatal Rag2^−/− c^−/− mice; FACS analysis of mice treated with either vehicle (0.9% NS), mismatch control (30 mg/kg) or imetelstat (30 mg/kg) followed by quantification of human CD45^+ cells in BM (FIG. 9A) and in spleen (FIG. 9B);

imetelstat
BC CML LSC replating (self-renewal) capacity (BC CML CD34+ cells (LSC)): ineffective
progenitor (CD34+CD38+Lin-) engraftment by FACS ([1]; MF318 mouse BM, compared to control treated mice, p<0.04): lower
human CD45+ engraftment by FACS ([1]; MF mouse BM, compared to control treated mice, p<0.014): lower
human CD45+ leukemic cell engraftment by confocal immunofluorescence microscopy ([1]; bone marrow, vs vehicle and mismatch controls): lower
splenomegaly ([1]; compared to control treated mice): decreased splenomegaly
proliferation of human CD45+ cells in bone marrow and spleen ([1]; pre-LSC mouse models from 4 different MF samples, vs vehicle controls, p<0.01, t test): significant reduction
reticulin fibrosis in bone marrow (immunohistochemistry) ([1]; vs vehicle and mismatch controls): less reticulin fibrosis
telomere length (FlowFish assay) (telomere length): normalization of telomere length
effect on normal hematopoietic stem cells ([2]; at doses reducing malignant RNA editing): spared normal hematopoietic stem cells
normal cord blood engraftment (human CD45+ cells) ([2]; imetelstat 30 mg/kg vs vehicle and mismatch control, BM and spleen): no significant decrease; also recorded: does not reduce
